According to article PMC5218480 (PLoS ONE, 2017):

Test system: MV-4-11 cells
Test: Gene expression microarray analysis (Affymetrix PrimeView) and GSEA
Type: cell-based, human
Set-up: RFU PODN (11730768_x_at) / Fold change /veh PODN (11730768_x_at) / RFU LINC00158 (11744669_a_at) / Fold change /veh LINC00158 (11744669_a_at) / RFU DUSP10 (11751237_a_at) / Fold change /veh DUSP10 (11751237_a_at) / RFU ID3 (11757404_x_at) / Fold change /veh ID3 (11757404_x_at) / RFU PLEKHG5 (11737974_s_at) / Fold change /veh PLEKHG5 (11737974_s_at) / RFU LRRC4B (11730491_at) / Fold change /veh LRRC4B (11730491_at) / RFU GIMAP4 (11747438_a_at) / Fold change /veh GIMAP4 (11747438_a_at) / RFU KRT8 (11758183_x_at) / Fold change /veh KRT8 (11758183_x_at) / RFU CNN1 (11734310_a_at) / Fold change /veh CNN1 (11734310_a_at) / RFU VPS37D (11726825_at) / Fold change /veh VPS37D (11726825_at) / RFU C10orf10 (11716522_x_at) / Fold change /veh C10orf10 (11716522_x_at) / RFU KIR2DL2 /// KIR2DL4 /// KIR2DL5A /// KIR2DL5B /// KIR2DS1 /// KIR2DS2 /// KIR2DS3 /// KIR2DS4 /// KIR3DL3 /// KIR3DL3 /// KIR3DS1 (11738374_at) / Fold change /veh KIR2DL2 /// KIR2DL4 /// KIR2DL5A /// KIR2DL5B /// KIR2DS1 /// KIR2DS2 /// KIR2DS3 /// KIR2DS4 /// KIR3DL3 /// KIR3DL3 /// KIR3DS1 (11738374_at) / RFU C1QL1 (11718748_at) / Fold change /veh C1QL1 (11718748_at) / RFU TMPRSS4 (11747572_a_at) / Fold change /veh TMPRSS4 (11747572_a_at) / RFU HAMP (11756126_x_at) / Fold change /veh HAMP (11756126_x_at) / RFU RNFT2 (11725882_a_at) / Fold change /veh RNFT2 (11725882_a_at) / RFU NR4A2 (11747474_a_at) / Fold change /veh NR4A2 (11747474_a_at) / RFU ABCC12 (11746883_a_at) / Fold change /veh ABCC12 (11746883_a_at) / RFU TMEM136 (11760407_x_at) / Fold change /veh TMEM136 (11760407_x_at) / RFU CLDN22 /// WWC2 (11732394_at) / Fold change /veh CLDN22 /// WWC2 (11732394_at) / RFU HLA-DPB1 (11760878_x_at) / Fold change /veh HLA-DPB1 (11760878_x_at) / RFU SPINT1 (11716480_a_at) / Fold change /veh SPINT1 (11716480_a_at) / RFU GAP43 (11754022_s_at) / Fold change /veh GAP43 (11754022_s_at) / RFU A4GNT (11735810_at) / Fold change /veh A4GNT (11735810_at) / RFU PRB3 (11715151_x_at) / Fold change /veh PRB3 (11715151_x_at) / RFU TUBB4B (11761932_at) / Fold change /veh TUBB4B (11761932_at) / RFU CAPN14 (11732068_a_at) / Fold change /veh CAPN14 (11732068_a_at) / RFU TMCC2 (11721928_a_at) / Fold change /veh TMCC2 (11721928_a_at) / RFU IRGQ (11745062_a_at) / Fold change /veh IRGQ (11745062_a_at) / RFU FAM174B (11720279_a_at) / Fold change /veh FAM174B (11720279_a_at) / RFU TMPRSS4 (11748680_a_at) / Fold change /veh TMPRSS4 (11748680_a_at) / RFU FAM212B (11763350_a_at) / Fold change /veh FAM212B (11763350_a_at) / RFU PLEKHG5 (11743358_a_at) / Fold change /veh PLEKHG5 (11743358_a_at) / RFU ZSCAN30 (11745921_a_at) / Fold change /veh ZSCAN30 (11745921_a_at) / RFU CMKLR1 (11741424_a_at) / Fold change /veh CMKLR1 (11741424_a_at) / RFU LOC101060620 /// MAPK8IP1 (11723275_at) / Fold change /veh LOC101060620 /// MAPK8IP1 (11723275_at) / RFU SPTSSB (11747773_x_at) / Fold change /veh SPTSSB (11747773_x_at) / RFU PRSS12 (11739890_at) / Fold change /veh PRSS12 (11739890_at) / RFU BIN1 (11741810_x_at) / Fold change /veh BIN1 (11741810_x_at) / RFU WNT11 (11732464_a_at) / Fold change /veh WNT11 (11732464_a_at) / RFU C10orf10 (11716521_a_at) / Fold change /veh C10orf10 (11716521_a_at) / RFU C5orf56 (11738089_at) / Fold change /veh C5orf56 (11738089_at) / RFU CYB561 (11721691_x_at) / Fold change /veh CYB561 (11721691_x_at) / RFU ANKRD19P (11752326_a_at) / Fold change /veh ANKRD19P (11752326_a_at) / RFU OR2T12 /// OR2T33 /// OR2T8 (11738714_s_at) / Fold change /veh OR2T12 /// OR2T33 /// OR2T8 (11738714_s_at) / RFU VCAN (11748164_a_at) / Fold change /veh VCAN (11748164_a_at) / RFU JSRP1 (11732532_at) / Fold change /veh JSRP1 (11732532_at) / RFU KRTAP10-11 (11738290_x_at) / Fold change /veh KRTAP10-11 (11738290_x_at) / RFU MYO3A (11730013_a_at) / Fold change /veh MYO3A (11730013_a_at) / RFU EBF3 (11725865_a_at) / Fold change /veh EBF3 (11725865_a_at) / RFU CAMK2N1 (11719241_x_at) / Fold change /veh CAMK2N1 (11719241_x_at) / RFU C5orf56 (11738088_a_at) / Fold change /veh C5orf56 (11738088_a_at) / RFU OLFML3 (11715873_a_at) / Fold change /veh OLFML3 (11715873_a_at) / RFU LOC100653217 /// NTM (11731650_a_at) / Fold change /veh LOC100653217 /// NTM (11731650_a_at) / RFU MAPK11 (11762145_a_at) / Fold change /veh MAPK11 (11762145_a_at) / RFU FIZ1 (11724087_x_at) / Fold change /veh FIZ1 (11724087_x_at) / RFU OASL (11726364_x_at) / Fold change /veh OASL (11726364_x_at) / RFU SOX15 (11748057_x_at) / Fold change /veh SOX15 (11748057_x_at) / RFU CD79A (11719716_a_at) / Fold change /veh CD79A (11719716_a_at) / RFU HIST1H1D (11736915_at) / Fold change /veh HIST1H1D (11736915_at) / RFU CASKIN2 (11723855_a_at) / Fold change /veh CASKIN2 (11723855_a_at) / RFU LOC730098 (11760151_x_at) / Fold change /veh LOC730098 (11760151_x_at) / RFU OR4N2 (11742367_at) / Fold change /veh OR4N2 (11742367_at) / RFU PRRT2 (11749266_a_at) / Fold change /veh PRRT2 (11749266_a_at) / RFU SNX32 (11753110_a_at) / Fold change /veh SNX32 (11753110_a_at) / RFU CDHR5 (11726645_a_at) / Fold change /veh CDHR5 (11726645_a_at) / RFU RCAN1 (11760418_a_at) / Fold change /veh RCAN1 (11760418_a_at) / RFU FAM167A (11723789_a_at) / Fold change /veh FAM167A (11723789_a_at) / RFU FAM26E (11764081_at) / Fold change /veh FAM26E (11764081_at) / RFU ISYNA1 (11749810_s_at) / Fold change /veh ISYNA1 (11749810_s_at) / RFU ACY1 (11761880_at) / Fold change /veh ACY1 (11761880_at) / RFU 11764098_at / Fold change /veh 11764098_at / RFU SAMD14 (11745864_x_at) / Fold change /veh SAMD14 (11745864_x_at) / RFU NPB (11741838_a_at) / Fold change /veh NPB (11741838_a_at) / RFU TMPRSS6 (11731388_a_at) / Fold change /veh TMPRSS6 (11731388_a_at) / RFU KRTAP10-2 (11738614_at) / Fold change /veh KRTAP10-2 (11738614_at) / RFU ARHGAP8 /// PRR5-ARHGAP8 (11727945_x_at) / Fold change /veh ARHGAP8 /// PRR5-ARHGAP8 (11727945_x_at) / RFU KRTAP5-7 /// NADSYN1 (11734609_at) / Fold change /veh KRTAP5-7 /// NADSYN1 (11734609_at) / RFU RASL12 (11751679_a_at) / Fold change /veh RASL12 (11751679_a_at) / RFU CDKN2B (11736163_a_at) / Fold change /veh CDKN2B (11736163_a_at) / RFU PRF1 (11729649_at) / Fold change /veh PRF1 (11729649_at) / RFU, ZNF638 /// ZNF638-IT1 / Fold change vs veh, ZNF638 /// ZNF638-IT1 / RFU, PANK3 / Fold change vs veh, PANK3 / RFU, SH3YL1 / Fold change vs veh, SH3YL1 / RFU, ZEB2 / Fold change vs veh, ZEB2 / RFU, NRIP1 / Fold change vs veh, NRIP1 / RFU, PTTG1IP / Fold change vs veh, PTTG1IP / RFU, CAPN2 / Fold change vs veh, CAPN2 / RFU, MED14 / Fold change vs veh, MED14 / RFU, SNORA58 / Fold change vs veh, SNORA58 / RFU, C1orf63 / Fold change vs veh, C1orf63 / RFU, LRRFIP1 / Fold change vs veh, LRRFIP1 / RFU, NDUFAF7 / Fold change vs veh, NDUFAF7 / RFU, SLC12A2 / Fold change vs veh, SLC12A2 / RFU, IBTK / Fold change vs veh, IBTK / RFU, ESF1 / Fold change vs veh, ESF1 / Fold change vs veh, TMEM50B / RFU, TAOK1 / Fold change vs veh, TAOK1 / RFU, ACBD3 / Fold change vs veh, ACBD3 / RFU, TMA16 / Fold change vs veh, TMA16 / RFU, RWDD3 / Fold change vs veh, RWDD3 / RFU, BCAT1 / Fold change vs veh, BCAT1 / RFU, EDEM3 / Fold change vs veh, EDEM3 / RFU, TMEM33 / Fold change vs veh, TMEM33 / RFU, WDR75 / Fold change vs veh, WDR75 / RFU, AHCTF1 / Fold change vs veh, AHCTF1 / RFU, TFRC / Fold change vs veh, TFRC / RFU, ZDHHC17 / Fold change vs veh, ZDHHC17 / RFU, NOM1 / Fold change vs veh, NOM1 / RFU, ARL8B / Fold change vs veh, ARL8B / RFU, ZBTB11 / Fold change vs veh, ZBTB11 / RFU, TAMM41 / Fold change vs veh, TAMM41 / RFU, KIAA1704 /// LOC100996395 / Fold change vs veh, KIAA1704 /// LOC100996395 / RFU, ING1 / Fold change vs veh, ING1 / RFU, TRMT61B / Fold change vs veh, TRMT61B / RFU, FUBP3 / Fold change vs veh, FUBP3 / RFU, TP53 / Fold change vs veh, TP53 / RFU, TNKS2 / Fold change vs veh, TNKS2 / RFU, ZFP14 / Fold change vs veh, ZFP14 / RFU, ACTR2 / Fold change vs veh, ACTR2 / RFU, PPP3R1 / Fold change vs veh, PPP3R1 / RFU, PIK3R1 / Fold change vs veh, PIK3R1 / RFU, HNRNPA1 / Fold change vs veh, HNRNPA1 / RFU, RNF170 / Fold change vs veh, RNF170 / RFU, ZNF28 / Fold change vs veh, ZNF28 / RFU, RNGTT / Fold change vs veh, RNGTT / RFU, OGT / Fold change vs veh, OGT / RFU, BRD1 / Fold change vs veh, BRD1 / RFU, MARS / Fold change vs veh, MARS / RFU, ZNF655 / Fold change vs veh, ZNF655 / RFU, FAHD1 / Fold change vs veh, FAHD1 / RFU, BDP1 / Fold change vs veh, BDP1 / RFU, LRRCC1 / Fold change vs veh, LRRCC1 / RFU, ARID1A / Fold change vs veh, ARID1A / RFU, ZNF146 / Fold change vs veh, ZNF146 / RFU, ZNF330 / Fold change vs veh, ZNF330 / RFU, GPN3 / Fold change vs veh, GPN3 / RFU, C9orf123 / Fold change vs veh, C9orf123 / RFU, N4BP2L2 / Fold change vs veh, N4BP2L2 / RFU, ARFIP1 / Fold change vs veh, ARFIP1 / RFU, FAM179B / Fold change vs veh, FAM179B / RFU, BCL10 / Fold change vs veh, BCL10 / RFU, UHRF1BP1L / Fold change vs veh, UHRF1BP1L / RFU, BET1 / Fold change vs veh, BET1 / RFU, CNOT2 / Fold change vs veh, CNOT2 / RFU, ZNF268 / Fold change vs veh, ZNF268 / Fold change vs veh, ZNF507 / RFU, DGCR2 / Fold change vs veh, DGCR2 / RFU, WDSUB1 / Fold change vs veh, WDSUB1 / Fold change vs veh, HSP90B1 /// MIR3652 / RFU, ADSS / Fold change vs veh, ADSS / RFU, GK / Fold change vs veh, GK / RFU, ZNF148 / Fold change vs veh, ZNF148 / RFU, TAF9 / Fold change vs veh, TAF9 / RFU, SLC1A5 / Fold change vs veh, SLC1A5 / RFU, SLMO2 / Fold change vs veh, SLMO2 / RFU, ABCC4 / Fold change vs veh, ABCC4 / RFU, LOC101060439 /// RAP1B / Fold change vs veh, LOC101060439 /// RAP1B / RFU, RFX7 / Fold change vs veh, RFX7 / RFU, GTPBP10 / Fold change vs veh, GTPBP10 / RFU, CNEP1R1 / Fold change vs veh, CNEP1R1 / RFU, BIVM-ERCC5 /// ERCC5 / Fold change vs veh, BIVM-ERCC5 /// ERCC5 / RFU, ILF3 / Fold change vs veh, ILF3 / RFU 11762660_at / Fold change /veh 11762660_at / RFU VCAN (11757783_s_at) / Fold change /veh VCAN (11757783_s_at) / RFU DDX43 (11728927_at) / Fold change /veh DDX43 (11728927_at) / RFU KRT8 (11758188_x_at) / Fold change /veh KRT8 (11758188_x_at) / RFU NKD1 (11759106_at) / Fold change /veh NKD1 (11759106_at) / RFU SRD5A1 (11742802_a_at) / Fold change /veh SRD5A1 (11742802_a_at) / RFU TPSAB1 /// TPSB2 (11721975_s_at) / Fold change /veh TPSAB1 /// TPSB2 (11721975_s_at) / RFU GSTM3 (11746129_a_at) / Fold change /veh GSTM3 (11746129_a_at) / RFU IL23R (11737362_x_at) / Fold change /veh IL23R (11737362_x_at) / RFU TMEM51 (11727254_a_at) / Fold change /veh TMEM51 (11727254_a_at) / RFU PIWIL2 (11732686_x_at) / Fold change /veh PIWIL2 (11732686_x_at) / RFU ORM1 (11744905_x_at) / Fold change /veh ORM1 (11744905_x_at) / RFU CCDC152 (11743942_at) / Fold change /veh CCDC152 (11743942_at) / RFU ECM1 (11717891_a_at) / Fold change /veh ECM1 (11717891_a_at) / RFU IL23R (11748794_a_at) / Fold change /veh IL23R (11748794_a_at) / RFU TNFAIP8L3 (11732012_x_at) / Fold change /veh TNFAIP8L3 (11732012_x_at) / RFU MBOAT4 (11741988_at) / Fold change /veh MBOAT4 (11741988_at) / RFU 11764193_at / Fold change /veh 11764193_at / RFU TMEM53 (11763286_at) / Fold change /veh TMEM53 (11763286_at) / RFU MAGEB2 (11727129_at) / Fold change /veh MAGEB2 (11727129_at) / RFU TMEM200A (11744735_a_at) / Fold change /veh TMEM200A (11744735_a_at) / RFU CCDC152 (11751479_a_at) / Fold change /veh CCDC152 (11751479_a_at) / RFU FAM211A (11726209_a_at) / Fold change /veh FAM211A (11726209_a_at) / RFU RGS16 (11746705_a_at) / Fold change /veh RGS16 (11746705_a_at) / RFU VCAN (11755009_s_at) / Fold change /veh VCAN (11755009_s_at) / RFU RHOB (11743442_s_at) / Fold change /veh RHOB (11743442_s_at) / RFU RGS16 (11720943_a_at) / Fold change /veh RGS16 (11720943_a_at) / RFU RGS16 (11720944_at) / Fold change /veh RGS16 (11720944_at) / RFU, VPS4B / Fold change vs veh, VPS4B / RFU, CREB1 / Fold change vs veh, CREB1 / RFU, DNAJC13 / Fold change vs veh, DNAJC13 / RFU, GNAQ / Fold change vs veh, GNAQ / RFU, CDK5R1 / Fold change vs veh, CDK5R1 / RFU, ZRANB3 / Fold change vs veh, ZRANB3 / RFU, CUL4A / Fold change vs veh, CUL4A / RFU, CCNY / Fold change vs veh, CCNY / RFU, UFL1 / Fold change vs veh, UFL1 / RFU, COG3 / Fold change vs veh, COG3 / RFU, DIAPH2 / Fold change vs veh, DIAPH2 / RFU, SKA2 / Fold change vs veh, SKA2 / RFU, AFF3 / Fold change vs veh, AFF3 / RFU, LMF1 / Fold change vs veh, LMF1 / RFU, IPO11 / Fold change vs veh, IPO11 / RFU, DFFB / Fold change vs veh, DFFB / RFU, FOXP1 / Fold change vs veh, FOXP1 / RFU, CARD8 / Fold change vs veh, CARD8 / RFU, STRN3 / Fold change vs veh, STRN3 / RFU, ADK / Fold change vs veh, ADK / RFU, RASSF2 / Fold change vs veh, RASSF2 / RFU, WIPF1 / Fold change vs veh, WIPF1 / RFU, LARP1B / Fold change vs veh, LARP1B / RFU, RASA1 / Fold change vs veh, RASA1 / RFU, RB1 / Fold change vs veh, RB1 / RFU, PPFIA1 / Fold change vs veh, PPFIA1 / RFU, MAT2A / Fold change vs veh, MAT2A / RFU, CCT5 / Fold change vs veh, CCT5 / RFU, WDR92 / Fold change vs veh, WDR92 / RFU, CUX1 / Fold change vs veh, CUX1 / RFU, TTC7A / Fold change vs veh, TTC7A / RFU, TMEM135 / Fold change vs veh, TMEM135 / RFU, DEPTOR / Fold change vs veh, DEPTOR / RFU, CPM / Fold change vs veh, CPM / RFU, DNAJB6 / Fold change vs veh, DNAJB6 / RFU, CACNA2D3 / Fold change vs veh, CACNA2D3 / RFU, DTX4 / Fold change vs veh, DTX4 / RFU, TFCP2 / Fold change vs veh, TFCP2 / RFU, GMCL1 /// GMCL1P1 / Fold change vs veh, GMCL1 /// GMCL1P1 / RFU, AEBP2 / Fold change vs veh, AEBP2 / RFU, SNHG1 /// SNORD22 /// SNORD25 /// SNORD26 /// SNORD27 /// SNORD28 /// SNORD29 /// SNORD31 / Fold change vs veh, SNHG1 /// SNORD22 /// SNORD25 /// SNORD26 /// SNORD27 /// SNORD28 /// SNORD29 /// SNORD31 / Fold change (Aza/veh), C12orf56 (ProbeSet 11735607_a_at) / Fold change (ACY-1035/veh), C12orf56 (ProbeSet 11735607_a_at) / Fold change (Aza/veh), FGFR1OP (ProbeSet 11751329_s_at) / Fold change (ACY-1035/veh), FGFR1OP (ProbeSet 11751329_s_at) / Fold change (Aza/veh), VPS36 (ProbeSet 11739960_a_at) / Fold change (ACY-1035/veh), VPS36 (ProbeSet 11739960_a_at) / RFU SYPL1 (11715823_x_at) / Fold change /veh SYPL1 (11715823_x_at) / RFU IGFBP7 (11715501_s_at) / Fold change /veh IGFBP7 (11715501_s_at) / RFU REEP3 (11722064_at) / Fold change /veh REEP3 (11722064_at) / RFU IGLL1 (11728026_x_at) / Fold change /veh IGLL1 (11728026_x_at): dose or concentration left out as unconfirmed
Conditions: ProbeSet 11729384_s_at; LIST D

For `Nc1ccc(-c2cccs2)cc1NC(=O)c1ccc2c(c1)cc(C1CC1)n2CCN1CCOCC1` [ACY-1035], the “RFU, CCNY” value was 178.51 RFU.
